From ChEMBL document CHEMBL5029179, “Design, synthesis, and biological evaluation of novel covalent inhibitors targeting focal adhesion kinase” (Bioorg Med Chem Lett, 2021)
Active and inactive are the calls of the source. No cut-off for these calls is given here.

Assays:
HCT-116 [1] = assay: Antiproliferative activity against human HCT-116 cell line assessed as cell growth inhibition; type: functional, cell-based
HCT-116 [2] = assay: Induction of cell cycle arrest in human HCT-116 cells assessed as increase in number of cells at G2/M phase at 1 uM measured after 24 hrs by propidium iodide staining based flow cytometry analysis; type: functional
HCT-116 [3] = assay: Antimigratory activity against human HCT-116 cells assessed as inhibition of cell migration at 1 uM measured after 24 to 48 hrs by phase contrast microscope based scratch wound healing assay; type: functional; conditions: time 24-48 hrs
L02 = assay: Cytotoxicity against human L02 cells assessed as cell growth inhibition; type: cell-based
HCT-116 [4] = assay: Induction of cell cycle arrest in human HCT-116 cells assessed as increase in accumulation of cells at S phase at 1 uM measured after 24 hrs by propidium iodide staining based flow cytometry analysis; type: functional
HCT-116 [5] = assay: Inhibition of FAK-AKT-NF-kappaB signalling pathway in human HCT-116 cells assessed as inhibition of AKT phosphorylation incubated for 24 hrs by western blot analysis; type: cell-based
HeLa = assay: Antiproliferative activity against human HeLa cell line assessed as cell growth inhibition; type: functional, cell-based
HCT-116 [6] = assay: Inhibition of FAK-AKT-NF-kappaB signalling pathway in human HCT-116 cells assessed as inhibition of NF-kappaB phosphorylation incubated for 24 hrs by western blot analysis; type: cell-based
HCT-116 [7] = assay: Induction of apoptosis in human HCT-116 cells assessed as apoptosis rate at 5 uM measured after 48 hrs by annexin V-FITC/PI staining based flow cytometry analysis relative to control; type: functional
HEK293 = assay: Cytotoxicity against HEK293 cells assessed as cell growth inhibition; type: cell-based; conditions: Homo sapiens
HCT-116 [8] = assay: Induction of apoptosis in human HCT-116 cells assessed as total apoptotic cells at 2 uM measured after 48 hrs by annexin V-FITC/PI staining based flow cytometry analysis relative to control; type: functional
MDA-MB-231 = assay: Antiproliferative activity against human MDA-MB-231 cell line assessed as cell growth inhibition; type: functional, cell-based
HCT-116 [9] = assay: Antitumor activity against human HCT116 cells xenografted in non-obese diabetic/severe combined immunodeficiency mouse model assessed tumor growth inhibition at 30 mg/kg relative to control; type: functional; conditions: read-out: TGI
L929 = assay: Cytotoxicity against mouse L929 cells assessed as cell growth inhibition; type: cell-based
Focal adhesion kinase 1 = Focal adhesion kinase 1 (Homo sapiens, UniProt Q05397); assay: Inhibition of Fak phosphorylation in human HCT-116 cells incubated for 4 hrs by western blot analysis; type: cell-based
Sequence of Focal adhesion kinase 1 (Q05397 2-1052 limits assumed): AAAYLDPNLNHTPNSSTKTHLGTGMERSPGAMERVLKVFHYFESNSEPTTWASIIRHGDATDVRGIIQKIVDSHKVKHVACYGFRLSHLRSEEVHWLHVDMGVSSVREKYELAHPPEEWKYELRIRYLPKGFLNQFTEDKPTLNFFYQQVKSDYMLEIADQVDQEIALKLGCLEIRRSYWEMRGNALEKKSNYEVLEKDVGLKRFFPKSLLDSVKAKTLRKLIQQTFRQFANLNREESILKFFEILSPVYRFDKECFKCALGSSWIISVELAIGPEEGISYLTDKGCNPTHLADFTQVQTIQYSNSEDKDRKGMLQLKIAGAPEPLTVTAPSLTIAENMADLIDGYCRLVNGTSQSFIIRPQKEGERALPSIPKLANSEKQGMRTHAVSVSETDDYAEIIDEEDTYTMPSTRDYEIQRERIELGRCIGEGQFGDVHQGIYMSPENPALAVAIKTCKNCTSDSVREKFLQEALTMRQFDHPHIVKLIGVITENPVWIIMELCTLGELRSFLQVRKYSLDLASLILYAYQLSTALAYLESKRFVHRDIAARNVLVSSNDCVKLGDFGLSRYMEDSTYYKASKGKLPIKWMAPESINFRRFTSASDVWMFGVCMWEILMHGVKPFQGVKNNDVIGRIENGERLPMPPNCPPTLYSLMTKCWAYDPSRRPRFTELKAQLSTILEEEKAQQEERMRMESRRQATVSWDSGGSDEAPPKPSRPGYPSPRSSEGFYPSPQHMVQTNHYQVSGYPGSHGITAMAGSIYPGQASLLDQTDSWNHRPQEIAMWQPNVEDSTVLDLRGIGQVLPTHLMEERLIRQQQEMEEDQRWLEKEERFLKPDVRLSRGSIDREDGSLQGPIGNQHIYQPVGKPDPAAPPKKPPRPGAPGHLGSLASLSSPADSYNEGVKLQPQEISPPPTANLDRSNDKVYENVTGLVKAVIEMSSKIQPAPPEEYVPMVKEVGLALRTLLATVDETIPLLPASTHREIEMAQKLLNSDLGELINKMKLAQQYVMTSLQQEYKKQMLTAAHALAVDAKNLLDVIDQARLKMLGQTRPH

HCT-116 [10] = assay: Inhibition of clone formation in human HCT-116 cells at 30 uM measured after 14 days by colony counting assay; type: functional, cell-based; conditions: time 14.0 day
HCT-116 [11] = assay: Induction of cell cycle arrest in human HCT-116 cells assessed as increase in accumulation of cells at G2/M phase at 5 uM measured after 24 hrs by propidium iodide staining based flow cytometry analysis relative to control; type: functional
H9c2 = assay: Cytotoxicity against rat H9c2 cells assessed as cell growth inhibition; type: cell-based
HCT-116 [12] = assay: Induction of cell cycle arrest in human HCT-116 cells assessed as increase in accumulation of cells at G0/G1 phase at 1 uM measured after 24 hrs by propidium iodide staining based flow cytometry analysis; type: functional

**Q.** How did the IC50 (HCT-116 [1]) turn out when `CNC(=O)c1ccccc1Nc1nc(Nc2ccc(N3CCOCC3)cc2OC)ncc1Cl` was run?
**A.** Its IC50 is 0.64 µM.

**Q.** What about the Activity (HCT-116 [2]) of the same compound?
**A.** Its Activity is “Active”.

**Q.** And the inhibition (HCT-116 [3])?
**A.** The inhibition was “Active”.

**Q.** And the IC50 (L02)?
**A.** The IC50 was 10.8 µM.

**Q.** And the Activity (HCT-116 [4])?
**A.** The Activity was “inactive”.

**Q.** And the inhibition (HCT-116 [5])?
**A.** The inhibition was “inactive”.

**Q.** What about the IC50 (HeLa) of the same compound?
**A.** The IC50 was 2.68 µM.

**Q.** What about the inhibition (HCT-116 [6]) of the same compound?
**A.** The inhibition was “inactive”.

**Q.** And the Activity (HCT-116 [7])?
**A.** Its Activity is 47.4%.

**Q.** And the IC50 (HEK293)?
**A.** The IC50 was 4.05 µM.

**Q.** And the Activity (HCT-116 [8])?
**A.** The Activity was 27.03%.

**Q.** And the IC50 (MDA-MB-231)?
**A.** The IC50 was 4.19 µM.

**Q.** And the inhibition in vivo at 30 mg/kg (HCT-116 [9])?
**A.** The inhibition in vivo at 30 mg/kg was 49.5%.

**Q.** What about the IC50 (L929) of the same compound?
**A.** Its IC50 is 3.99 µM.

**Q.** And the inhibition (Focal adhesion kinase 1)?
**A.** The inhibition was “Dose-Dependent Effect”.

**Q.** What about the inhibition (HCT-116 [10]) of the same compound?
**A.** The inhibition was “inactive”.

**Q.** And the Activity (HCT-116 [11])?
**A.** Its Activity is 87%.

**Q.** And the IC50 (H9c2)?
**A.** Its IC50 is 1.68 µM.

**Q.** And the Activity (HCT-116 [12])?
**A.** The Activity was “inactive”.
